Test system: MV-4-11 cells
Test: Gene expression microarray analysis (Affymetrix PrimeView) and GSEA
Format: cell-based, human
Set-up: RFU PODN (11730768_x_at) / Fold change /veh PODN (11730768_x_at) / RFU LINC00158 (11744669_a_at) / Fold change /veh LINC00158 (11744669_a_at) / RFU DUSP10 (11751237_a_at) / Fold change /veh DUSP10 (11751237_a_at) / RFU ID3 (11757404_x_at) / Fold change /veh ID3 (11757404_x_at) / RFU PLEKHG5 (11737974_s_at) / Fold change /veh PLEKHG5 (11737974_s_at) / RFU LRRC4B (11730491_at) / Fold change /veh LRRC4B (11730491_at) / RFU GIMAP4 (11747438_a_at) / Fold change /veh GIMAP4 (11747438_a_at) / RFU KRT8 (11758183_x_at) / Fold change /veh KRT8 (11758183_x_at) / RFU CNN1 (11734310_a_at) / Fold change /veh CNN1 (11734310_a_at) / RFU VPS37D (11726825_at) / Fold change /veh VPS37D (11726825_at) / RFU C10orf10 (11716522_x_at) / Fold change /veh C10orf10 (11716522_x_at) / RFU KIR2DL2 /// KIR2DL4 /// KIR2DL5A /// KIR2DL5B /// KIR2DS1 /// KIR2DS2 /// KIR2DS3 /// KIR2DS4 /// KIR3DL3 /// KIR3DL3 /// KIR3DS1 (11738374_at) / Fold change /veh KIR2DL2 /// KIR2DL4 /// KIR2DL5A /// KIR2DL5B /// KIR2DS1 /// KIR2DS2 /// KIR2DS3 /// KIR2DS4 /// KIR3DL3 /// KIR3DL3 /// KIR3DS1 (11738374_at) / RFU C1QL1 (11718748_at) / Fold change /veh C1QL1 (11718748_at) / RFU TMPRSS4 (11747572_a_at) / Fold change /veh TMPRSS4 (11747572_a_at) / RFU HAMP (11756126_x_at) / Fold change /veh HAMP (11756126_x_at) / RFU RNFT2 (11725882_a_at) / Fold change /veh RNFT2 (11725882_a_at) / RFU NR4A2 (11747474_a_at) / Fold change /veh NR4A2 (11747474_a_at) / RFU ABCC12 (11746883_a_at) / Fold change /veh ABCC12 (11746883_a_at) / RFU TMEM136 (11760407_x_at) / Fold change /veh TMEM136 (11760407_x_at) / RFU CLDN22 /// WWC2 (11732394_at) / Fold change /veh CLDN22 /// WWC2 (11732394_at) / RFU HLA-DPB1 (11760878_x_at) / Fold change /veh HLA-DPB1 (11760878_x_at) / RFU SPINT1 (11716480_a_at) / Fold change /veh SPINT1 (11716480_a_at) / RFU GAP43 (11754022_s_at) / Fold change /veh GAP43 (11754022_s_at) / RFU A4GNT (11735810_at) / Fold change /veh A4GNT (11735810_at) / RFU PRB3 (11715151_x_at) / Fold change /veh PRB3 (11715151_x_at) / RFU TUBB4B (11761932_at) / Fold change /veh TUBB4B (11761932_at) / RFU CAPN14 (11732068_a_at) / Fold change /veh CAPN14 (11732068_a_at) / RFU TMCC2 (11721928_a_at) / Fold change /veh TMCC2 (11721928_a_at) / RFU IRGQ (11745062_a_at) / Fold change /veh IRGQ (11745062_a_at) / RFU FAM174B (11720279_a_at) / Fold change /veh FAM174B (11720279_a_at) / RFU TMPRSS4 (11748680_a_at) / Fold change /veh TMPRSS4 (11748680_a_at) / RFU FAM212B (11763350_a_at) / Fold change /veh FAM212B (11763350_a_at) / RFU PLEKHG5 (11743358_a_at) / Fold change /veh PLEKHG5 (11743358_a_at) / RFU ZSCAN30 (11745921_a_at) / Fold change /veh ZSCAN30 (11745921_a_at) / RFU CMKLR1 (11741424_a_at) / Fold change /veh CMKLR1 (11741424_a_at) / RFU LOC101060620 /// MAPK8IP1 (11723275_at) / Fold change /veh LOC101060620 /// MAPK8IP1 (11723275_at) / RFU SPTSSB (11747773_x_at) / Fold change /veh SPTSSB (11747773_x_at) / RFU PRSS12 (11739890_at) / Fold change /veh PRSS12 (11739890_at) / RFU BIN1 (11741810_x_at) / Fold change /veh BIN1 (11741810_x_at) / RFU WNT11 (11732464_a_at) / Fold change /veh WNT11 (11732464_a_at) / RFU C10orf10 (11716521_a_at) / Fold change /veh C10orf10 (11716521_a_at) / RFU C5orf56 (11738089_at) / Fold change /veh C5orf56 (11738089_at) / RFU CYB561 (11721691_x_at) / Fold change /veh CYB561 (11721691_x_at) / RFU ANKRD19P (11752326_a_at) / Fold change /veh ANKRD19P (11752326_a_at) / RFU OR2T12 /// OR2T33 /// OR2T8 (11738714_s_at) / Fold change /veh OR2T12 /// OR2T33 /// OR2T8 (11738714_s_at) / RFU VCAN (11748164_a_at) / Fold change /veh VCAN (11748164_a_at) / RFU JSRP1 (11732532_at) / Fold change /veh JSRP1 (11732532_at) / RFU KRTAP10-11 (11738290_x_at) / Fold change /veh KRTAP10-11 (11738290_x_at) / RFU MYO3A (11730013_a_at) / Fold change /veh MYO3A (11730013_a_at) / RFU EBF3 (11725865_a_at) / Fold change /veh EBF3 (11725865_a_at) / RFU CAMK2N1 (11719241_x_at) / Fold change /veh CAMK2N1 (11719241_x_at) / RFU C5orf56 (11738088_a_at) / Fold change /veh C5orf56 (11738088_a_at) / RFU OLFML3 (11715873_a_at) / Fold change /veh OLFML3 (11715873_a_at) / RFU LOC100653217 /// NTM (11731650_a_at) / Fold change /veh LOC100653217 /// NTM (11731650_a_at) / RFU MAPK11 (11762145_a_at) / Fold change /veh MAPK11 (11762145_a_at) / RFU FIZ1 (11724087_x_at) / Fold change /veh FIZ1 (11724087_x_at) / RFU OASL (11726364_x_at) / Fold change /veh OASL (11726364_x_at) / RFU SOX15 (11748057_x_at) / Fold change /veh SOX15 (11748057_x_at) / RFU CD79A (11719716_a_at) / Fold change /veh CD79A (11719716_a_at) / RFU HIST1H1D (11736915_at) / Fold change /veh HIST1H1D (11736915_at) / RFU CASKIN2 (11723855_a_at) / Fold change /veh CASKIN2 (11723855_a_at) / RFU LOC730098 (11760151_x_at) / Fold change /veh LOC730098 (11760151_x_at) / RFU OR4N2 (11742367_at) / Fold change /veh OR4N2 (11742367_at) / RFU PRRT2 (11749266_a_at) / Fold change /veh PRRT2 (11749266_a_at) / RFU SNX32 (11753110_a_at) / Fold change /veh SNX32 (11753110_a_at) / RFU CDHR5 (11726645_a_at) / Fold change /veh CDHR5 (11726645_a_at) / RFU RCAN1 (11760418_a_at) / Fold change /veh RCAN1 (11760418_a_at) / RFU FAM167A (11723789_a_at) / Fold change /veh FAM167A (11723789_a_at) / RFU FAM26E (11764081_at) / Fold change /veh FAM26E (11764081_at) / RFU ISYNA1 (11749810_s_at) / Fold change /veh ISYNA1 (11749810_s_at) / RFU ACY1 (11761880_at) / Fold change /veh ACY1 (11761880_at) / RFU 11764098_at / Fold change /veh 11764098_at / RFU SAMD14 (11745864_x_at) / Fold change /veh SAMD14 (11745864_x_at) / RFU NPB (11741838_a_at) / Fold change /veh NPB (11741838_a_at) / RFU TMPRSS6 (11731388_a_at) / Fold change /veh TMPRSS6 (11731388_a_at) / RFU KRTAP10-2 (11738614_at) / Fold change /veh KRTAP10-2 (11738614_at) / RFU ARHGAP8 /// PRR5-ARHGAP8 (11727945_x_at) / Fold change /veh ARHGAP8 /// PRR5-ARHGAP8 (11727945_x_at) / RFU KRTAP5-7 /// NADSYN1 (11734609_at) / Fold change /veh KRTAP5-7 /// NADSYN1 (11734609_at) / RFU RASL12 (11751679_a_at) / Fold change /veh RASL12 (11751679_a_at) / RFU CDKN2B (11736163_a_at) / Fold change /veh CDKN2B (11736163_a_at) / RFU PRF1 (11729649_at) / Fold change /veh PRF1 (11729649_at) / RFU, ZNF638 /// ZNF638-IT1 / Fold change vs veh, ZNF638 /// ZNF638-IT1 / RFU, PANK3 / Fold change vs veh, PANK3 / RFU, SH3YL1 / Fold change vs veh, SH3YL1 / RFU, ZEB2 / Fold change vs veh, ZEB2 / RFU, NRIP1 / Fold change vs veh, NRIP1 / RFU, PTTG1IP / Fold change vs veh, PTTG1IP / RFU, CAPN2 / Fold change vs veh, CAPN2 / RFU, MED14 / Fold change vs veh, MED14 / RFU, SNORA58 / Fold change vs veh, SNORA58 / RFU, C1orf63 / Fold change vs veh, C1orf63 / RFU, LRRFIP1 / Fold change vs veh, LRRFIP1 / RFU, NDUFAF7 / Fold change vs veh, NDUFAF7 / RFU, SLC12A2 / Fold change vs veh, SLC12A2 / RFU, IBTK / Fold change vs veh, IBTK / RFU, ESF1 / Fold change vs veh, ESF1 / Fold change vs veh, TMEM50B / RFU, TAOK1 / Fold change vs veh, TAOK1 / RFU, ACBD3 / Fold change vs veh, ACBD3 / RFU, TMA16 / Fold change vs veh, TMA16 / RFU, RWDD3 / Fold change vs veh, RWDD3 / RFU, BCAT1 / Fold change vs veh, BCAT1 / RFU, EDEM3 / Fold change vs veh, EDEM3 / RFU, TMEM33 / Fold change vs veh, TMEM33 / RFU, WDR75 / Fold change vs veh, WDR75 / RFU, AHCTF1 / Fold change vs veh, AHCTF1 / RFU, TFRC / Fold change vs veh, TFRC / RFU, ZDHHC17 / Fold change vs veh, ZDHHC17 / RFU, NOM1 / Fold change vs veh, NOM1 / RFU, ARL8B / Fold change vs veh, ARL8B / RFU, ZBTB11 / Fold change vs veh, ZBTB11 / RFU, TAMM41 / Fold change vs veh, TAMM41 / RFU, KIAA1704 /// LOC100996395 / Fold change vs veh, KIAA1704 /// LOC100996395 / RFU, ING1 / Fold change vs veh, ING1 / RFU, TRMT61B / Fold change vs veh, TRMT61B / RFU, FUBP3 / Fold change vs veh, FUBP3 / RFU, TP53 / Fold change vs veh, TP53 / RFU, TNKS2 / Fold change vs veh, TNKS2 / RFU, ZFP14 / Fold change vs veh, ZFP14 / RFU, ACTR2 / Fold change vs veh, ACTR2 / RFU, PPP3R1 / Fold change vs veh, PPP3R1 / RFU, PIK3R1 / Fold change vs veh, PIK3R1 / RFU, HNRNPA1 / Fold change vs veh, HNRNPA1 / RFU, RNF170 / Fold change vs veh, RNF170 / RFU, ZNF28 / Fold change vs veh, ZNF28 / RFU, RNGTT / Fold change vs veh, RNGTT / RFU, OGT / Fold change vs veh, OGT / RFU, BRD1 / Fold change vs veh, BRD1 / RFU, MARS / Fold change vs veh, MARS / RFU, ZNF655 / Fold change vs veh, ZNF655 / RFU, FAHD1 / Fold change vs veh, FAHD1 / RFU, BDP1 / Fold change vs veh, BDP1 / RFU, LRRCC1 / Fold change vs veh, LRRCC1 / RFU, ARID1A / Fold change vs veh, ARID1A / RFU, ZNF146 / Fold change vs veh, ZNF146 / RFU, ZNF330 / Fold change vs veh, ZNF330 / RFU, GPN3 / Fold change vs veh, GPN3 / RFU, C9orf123 / Fold change vs veh, C9orf123 / RFU, N4BP2L2 / Fold change vs veh, N4BP2L2 / RFU, ARFIP1 / Fold change vs veh, ARFIP1 / RFU, FAM179B / Fold change vs veh, FAM179B / RFU, BCL10 / Fold change vs veh, BCL10 / RFU, UHRF1BP1L / Fold change vs veh, UHRF1BP1L / RFU, BET1 / Fold change vs veh, BET1 / RFU, CNOT2 / Fold change vs veh, CNOT2 / RFU, ZNF268 / Fold change vs veh, ZNF268 / Fold change vs veh, ZNF507 / RFU, DGCR2 / Fold change vs veh, DGCR2 / RFU, WDSUB1 / Fold change vs veh, WDSUB1 / Fold change vs veh, HSP90B1 /// MIR3652 / RFU, ADSS / Fold change vs veh, ADSS / RFU, GK / Fold change vs veh, GK / RFU, ZNF148 / Fold change vs veh, ZNF148 / RFU, TAF9 / Fold change vs veh, TAF9 / RFU, SLC1A5 / Fold change vs veh, SLC1A5 / RFU, SLMO2 / Fold change vs veh, SLMO2 / RFU, ABCC4 / Fold change vs veh, ABCC4 / RFU, LOC101060439 /// RAP1B / Fold change vs veh, LOC101060439 /// RAP1B / RFU, RFX7 / Fold change vs veh, RFX7 / RFU, GTPBP10 / Fold change vs veh, GTPBP10 / RFU, CNEP1R1 / Fold change vs veh, CNEP1R1 / RFU, BIVM-ERCC5 /// ERCC5 / Fold change vs veh, BIVM-ERCC5 /// ERCC5 / RFU, ILF3 / Fold change vs veh, ILF3 / RFU 11762660_at / Fold change /veh 11762660_at / RFU VCAN (11757783_s_at) / Fold change /veh VCAN (11757783_s_at) / RFU DDX43 (11728927_at) / Fold change /veh DDX43 (11728927_at) / RFU KRT8 (11758188_x_at) / Fold change /veh KRT8 (11758188_x_at) / RFU NKD1 (11759106_at) / Fold change /veh NKD1 (11759106_at) / RFU SRD5A1 (11742802_a_at) / Fold change /veh SRD5A1 (11742802_a_at) / RFU TPSAB1 /// TPSB2 (11721975_s_at) / Fold change /veh TPSAB1 /// TPSB2 (11721975_s_at) / RFU GSTM3 (11746129_a_at) / Fold change /veh GSTM3 (11746129_a_at) / RFU IL23R (11737362_x_at) / Fold change /veh IL23R (11737362_x_at) / RFU TMEM51 (11727254_a_at) / Fold change /veh TMEM51 (11727254_a_at) / RFU PIWIL2 (11732686_x_at) / Fold change /veh PIWIL2 (11732686_x_at) / RFU ORM1 (11744905_x_at) / Fold change /veh ORM1 (11744905_x_at) / RFU CCDC152 (11743942_at) / Fold change /veh CCDC152 (11743942_at) / RFU ECM1 (11717891_a_at) / Fold change /veh ECM1 (11717891_a_at) / RFU IL23R (11748794_a_at) / Fold change /veh IL23R (11748794_a_at) / RFU TNFAIP8L3 (11732012_x_at) / Fold change /veh TNFAIP8L3 (11732012_x_at) / RFU MBOAT4 (11741988_at) / Fold change /veh MBOAT4 (11741988_at) / RFU 11764193_at / Fold change /veh 11764193_at / RFU TMEM53 (11763286_at) / Fold change /veh TMEM53 (11763286_at) / RFU MAGEB2 (11727129_at) / Fold change /veh MAGEB2 (11727129_at) / RFU TMEM200A (11744735_a_at) / Fold change /veh TMEM200A (11744735_a_at) / RFU CCDC152 (11751479_a_at) / Fold change /veh CCDC152 (11751479_a_at) / RFU FAM211A (11726209_a_at) / Fold change /veh FAM211A (11726209_a_at) / RFU RGS16 (11746705_a_at) / Fold change /veh RGS16 (11746705_a_at) / RFU VCAN (11755009_s_at) / Fold change /veh VCAN (11755009_s_at) / RFU RHOB (11743442_s_at) / Fold change /veh RHOB (11743442_s_at) / RFU RGS16 (11720943_a_at) / Fold change /veh RGS16 (11720943_a_at) / RFU RGS16 (11720944_at) / Fold change /veh RGS16 (11720944_at) / RFU, VPS4B / Fold change vs veh, VPS4B / RFU, CREB1 / Fold change vs veh, CREB1 / RFU, DNAJC13 / Fold change vs veh, DNAJC13 / RFU, GNAQ / Fold change vs veh, GNAQ / RFU, CDK5R1 / Fold change vs veh, CDK5R1 / RFU, ZRANB3 / Fold change vs veh, ZRANB3 / RFU, CUL4A / Fold change vs veh, CUL4A / RFU, CCNY / Fold change vs veh, CCNY / RFU, UFL1 / Fold change vs veh, UFL1 / RFU, COG3 / Fold change vs veh, COG3 / RFU, DIAPH2 / Fold change vs veh, DIAPH2 / RFU, SKA2 / Fold change vs veh, SKA2 / RFU, AFF3 / Fold change vs veh, AFF3 / RFU, LMF1 / Fold change vs veh, LMF1 / RFU, IPO11 / Fold change vs veh, IPO11 / RFU, DFFB / Fold change vs veh, DFFB / RFU, FOXP1 / Fold change vs veh, FOXP1 / RFU, CARD8 / Fold change vs veh, CARD8 / RFU, STRN3 / Fold change vs veh, STRN3 / RFU, ADK / Fold change vs veh, ADK / RFU, RASSF2 / Fold change vs veh, RASSF2 / RFU, WIPF1 / Fold change vs veh, WIPF1 / RFU, LARP1B / Fold change vs veh, LARP1B / RFU, RASA1 / Fold change vs veh, RASA1 / RFU, RB1 / Fold change vs veh, RB1 / RFU, PPFIA1 / Fold change vs veh, PPFIA1 / RFU, MAT2A / Fold change vs veh, MAT2A / RFU, CCT5 / Fold change vs veh, CCT5 / RFU, WDR92 / Fold change vs veh, WDR92 / RFU, CUX1 / Fold change vs veh, CUX1 / RFU, TTC7A / Fold change vs veh, TTC7A / RFU, TMEM135 / Fold change vs veh, TMEM135 / RFU, DEPTOR / Fold change vs veh, DEPTOR / RFU, CPM / Fold change vs veh, CPM / RFU, DNAJB6 / Fold change vs veh, DNAJB6 / RFU, CACNA2D3 / Fold change vs veh, CACNA2D3 / RFU, DTX4 / Fold change vs veh, DTX4 / RFU, TFCP2 / Fold change vs veh, TFCP2 / RFU, GMCL1 /// GMCL1P1 / Fold change vs veh, GMCL1 /// GMCL1P1 / RFU, AEBP2 / Fold change vs veh, AEBP2 / RFU, SNHG1 /// SNORD22 /// SNORD25 /// SNORD26 /// SNORD27 /// SNORD28 /// SNORD29 /// SNORD31 / Fold change vs veh, SNHG1 /// SNORD22 /// SNORD25 /// SNORD26 /// SNORD27 /// SNORD28 /// SNORD29 /// SNORD31 / Fold change (Aza/veh), C12orf56 (ProbeSet 11735607_a_at) / Fold change (ACY-1035/veh), C12orf56 (ProbeSet 11735607_a_at) / Fold change (Aza/veh), FGFR1OP (ProbeSet 11751329_s_at) / Fold change (ACY-1035/veh), FGFR1OP (ProbeSet 11751329_s_at) / Fold change (Aza/veh), VPS36 (ProbeSet 11739960_a_at) / Fold change (ACY-1035/veh), VPS36 (ProbeSet 11739960_a_at) / RFU SYPL1 (11715823_x_at) / Fold change /veh SYPL1 (11715823_x_at) / RFU IGFBP7 (11715501_s_at) / Fold change /veh IGFBP7 (11715501_s_at) / RFU REEP3 (11722064_at) / Fold change /veh REEP3 (11722064_at) / RFU IGLL1 (11728026_x_at) / Fold change /veh IGLL1 (11728026_x_at): dose or concentration left out as unconfirmed
Conditions: MV-4-11 cells, 48 hours

Nc1ncn([C@@H]2O[C@H](CO)[C@@H](O)[C@H]2O)c(=O)n1 [azacitidine]
RFU RGS16 (11720944_at): 63.78 RFU

Reference: publication PMC5218480 (PLoS ONE, 2017)
